According to patent US9828351B2, “Enzyme interacting agents” (MONASH UNIVERSITY, priority 2014, dated 2017):

How the values were obtained:
Assay type in all cases: cell-based
[1] = target: T1, Dihydroceramide Desaturase-1 (Des1) (Homo sapiens, UniProt O15121); experiment: Dihydroceramide desaturase-1 (Des1) activity by HPLC in intact Jurkat cells labeled with DhCer-C6-NBD; settings: intact Jurkat cells; read-out: Des 1 IC50
T1 construct: These modifications included the use of parental Jurkat cells; endogenous in cells; host or cells: parental Jurkat cells
T1 sequence (O15121 1-323): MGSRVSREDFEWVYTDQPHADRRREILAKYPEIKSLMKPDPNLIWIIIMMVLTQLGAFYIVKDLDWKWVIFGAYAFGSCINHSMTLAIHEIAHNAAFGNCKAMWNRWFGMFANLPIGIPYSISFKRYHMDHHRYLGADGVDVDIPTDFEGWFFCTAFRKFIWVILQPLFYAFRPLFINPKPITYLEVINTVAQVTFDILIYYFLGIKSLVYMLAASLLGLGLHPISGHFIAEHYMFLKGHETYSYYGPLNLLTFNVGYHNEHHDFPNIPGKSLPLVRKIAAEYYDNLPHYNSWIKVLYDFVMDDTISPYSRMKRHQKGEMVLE
Experimental: Measurement of Dihydroceramide Desaturase-1 (Des1) Activity:
These modifications included the use of parental Jurkat cells, 0.5% serum in the culture media, and cell harvesting via centrifugation at 500×g to maximise ceramide extraction. Extracted samples (50 ul) were analysed on a Waters HPLC coupled to a fluorescence detector using a 30 cm C18 reverse-phase column eluted with 1 ml/min 20% H2O and 80% acetonitrile, both with a 0.1% of trifluoroacetic acid.

[2] = test system: PC3 prostate cancer cell lines; experiment: Anticancer activity in PC3 cell line, CellTitre AQueous One cell viability assay; settings: Homo sapiens, PC-3; concentration required to inhibit cell proliferation by 50%; 72 hours
Experimental: Measurement of Anticancer Activity in PC3 Cell Line Assays
PC3 prostate cancer cell lines were cultured in DMEM (containing 10% fetal calf serum and penicillin-streptomycin).
Before treatment with drug compounds, cells were plated at 2,500 cells/well in 96 well plates and incubated at 37° C. with 5% CO2 in a humidified incubator for 24 hours prior. Cells were only plated in columns 3-10 and rows C—F to ensure uniform humidity and warmth across all wells. The remaining wells were filled with 100 μL of phosphate buffered saline.
Drug stock solutions (50 or 10 mM) were diluted×1000 in media to a final concentration of either 50 μM or 10 μM with a DMSO vehicle concentration of 0.1%.
Cell culture supernatants were aspirated and replaced with drug containing media. Drug treatments were performed in duplicate wells, while potential plate layout-specific variation in cell growth was accounted for by addition of a vehicle control (0.1% DMSO).
Cells were then incubated with drug compounds at 37° C. with 5% CO2 in a humidified incubator for 72 hours prior to assay.
Media was diluted with CellTitre AQueous One Solution (Promega, Australia; Cat # G3580) according to manufacturer's instructions to produce a final concentration of 317 μg/mL.
Cell culture supernatants were then aspirated from wells and replaced with 100 μL of CellTitre solution. Triplicate cell-free control wells containing only CellTitre solution were also included in each assay.
Cells were then incubated at 37° C. with 5% CO2 in a humidified incubator for 1 hour at which time absorbance was read at 490 nm with an EnVision microplate reader (Perkin Elmer, Australia).
When analysing data, background absorbance (taken from cell-free control wells) was subtracted from each reading. […] For each drug concentration the mean (±SEM) is calculated and graphed using GraphPad Prism (version 5). A sigmoidal curved is fitted to the data and used to calculate the IC50 of each compound.

[3] = target: T2, SphK1a in Flpln-SphK1a cells (Flp-In T-Rex HEK293) (Homo sapiens, UniProt Q9NYA1); experiment: SphK1 proteasomal degradation study (immunoblotting); settings: 10 μM test compound, 24 h
T2 construct: expressed in transfected cells; host or cells: Flp-In T-Rex HEK293 cells, doxycycline-induced
Experimental: These studies were performed as previously described for the drug SKI-II (C. Loveridge et al. J. Biol. Chem. 2010, 285, 38891). […] After 24 h cells were treated with 10 μm test compound, 10 μm MG132, or both. DMSO was used as the vehicle control. After a further 24 h, cells were harvested, lysed, and subjected to SDS-PAGE and immunoblotting with anti-FLAG (Sigma), anti-ERK1/2 (Promega), or anti-a-tubulin (Abcam) antibodies.

T2 sequence (Q9NYA1 whole entry): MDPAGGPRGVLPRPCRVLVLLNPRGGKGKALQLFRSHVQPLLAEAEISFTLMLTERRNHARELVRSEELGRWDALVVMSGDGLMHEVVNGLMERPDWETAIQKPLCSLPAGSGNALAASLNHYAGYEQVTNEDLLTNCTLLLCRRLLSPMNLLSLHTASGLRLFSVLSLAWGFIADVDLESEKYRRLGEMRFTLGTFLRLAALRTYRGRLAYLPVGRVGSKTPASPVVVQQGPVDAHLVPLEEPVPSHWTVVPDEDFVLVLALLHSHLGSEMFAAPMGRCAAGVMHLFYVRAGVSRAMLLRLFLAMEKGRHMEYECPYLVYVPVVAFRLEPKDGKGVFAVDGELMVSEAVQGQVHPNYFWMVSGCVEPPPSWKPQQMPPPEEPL

IC50 [1]: 100 to 1000 nM | IC50 [2]: 1000 to 10000 nM | % SphK1a degradation at 10 μM [3]: 100%
Structure (SMILES): Oc1ccc(Nc2nc(-c3ccc(Cl)cc3)cs2)cc1 [SKI-II, reference compound]
